{"source": "ChEMBL document CHEMBL1909294", "about": "“Translating clinical findings into knowledge in drug safety evaluation--drug induced liver injury prediction system (DILIps)” (PLoS Comput Biol, 2011);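 for HepSE Combined Scores: combined hepatic side effect score as listed in the training data of the Drug Induced Liver Injury Prediction System (DILIps)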;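 for HepSE bilirubinemia: bilirubinemia hepatic side effect score drawn from the DILIps training data, a prediction system for drug-induced liver injury; call rule not given here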;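 for HepSE cholecystitis: Cholecystitis-related hepatic side effect score drawn from the DILIps (drug-induced liver injury prediction) training data set; call rule not given here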;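 for HepSE cholelithiasis: hepatic side effect score for cholelithiasis, drawn from the DILIps training data for predicting drug-induced liver injury; call rule not given here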;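 for HepSE cirrhosis: cirrhosis hepatic side effect score taken from the DILIps (drug-induced liver injury prediction) training set; call rule not given here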;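 for HepSE elevated liver function tests: hepatic side effect score for raised liver function tests, as recorded in the DILIps training set used for predicting drug-induced liver injury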; for HepSE hepatic failure: call rule not given here;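 for HepSE hepatic necrosis: score of hepatic side effects for hepatic necrosis, drawn from the training data of DILIps, a prediction system for drug-induced liver injury; call rule not given here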;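 for HepSE hepatitis: Hepatitis-related hepatic side effect score taken from the training data of DILIps, a prediction system for drug-induced liver injury; call rule not given here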;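 for HepSE hepatomegaly: hepatic side effect score for hepatomegaly, taken from the training set of the DILIps drug-induced liver injury prediction system; call rule not given here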;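 for HepSE jaundice: Jaundice-related hepatic side-effect score drawn from the training data of the DILIps (drug-induced liver injury prediction system); call rule not given here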; for HepSE liver disease: call rule not given here;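 for HepSE liver fatty: hepatic side effect score for fatty liver, taken from the DILIps training set for predicting drug-induced liver injury; call rule not given here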;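 for HepSE liver function tests abnormal: hepatic side effect score taken from the DILIps (drug-induced liver injury prediction system) training data, here covering abnormal liver function test findings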", "key": {"[1]": {"test_system": "Hepatotoxicity"}, "[2]": {"test_system": "Hepatotoxicity", "remark": "listed apart in the source"}, "[3]": {"test_system": "Hepatotoxicity", "remark": "listed apart in the source"}, "[4]": {"test_system": "Hepatotoxicity", "remark": "listed apart in the source"}, "[5]": {"test_system": "Hepatotoxicity", "remark": "listed apart in the source"}, "[6]": {"test_system": "Hepatotoxicity", "remark": "listed apart in the source"}, "[7]": {"test_system": "Hepatotoxicity", "remark": "listed apart in the source"}, "[8]": {"test_system": "Hepatotoxicity", "remark": "listed apart in the source"}, "[9]": {"test_system": "Hepatotoxicity", "remark": "listed apart in the source"}, "[10]": {"test_system": "Hepatotoxicity", "remark": "listed apart in the source"}, "[11]": {"test_system": "Hepatotoxicity", "remark": "listed apart in the source"}, "[12]": {"test_system": "Hepatotoxicity", "remark": "listed apart in the source"}, "[13]": {"test_system": "Hepatotoxicity", "remark": "listed apart in the source"}, "[14]": {"test_system": "Hepatotoxicity", "remark": "listed apart in the source"}}}
{"smiles": "CC1(C)S[C@@H]2[C@H](NC(=O)[C@H](N)c3ccc(O)cc3)C(=O)N2[C@H]1C(=O)O", "note": "[AMOXICILLIN]", "values": [{"measurement": "HepSE_liver fatty", "setting": "[1]", "result": 0}, {"measurement": "HepSE_hepatic necrosis", "setting": "[2]", "result": 0}, {"measurement": "HepSE_bilirubinemia", "setting": "[3]", "result": 0}, {"measurement": "HepSE_liver disease", "setting": "[4]", "result": 0}, {"measurement": "HepSE_jaundice", "setting": "[5]", "result": 1}, {"measurement": "HepSE_hepatomegaly", "setting": "[6]", "result": 0}, {"measurement": "HepSE_cholecystitis", "setting": "[7]", "result": 0}, {"measurement": "HepSE_elevated liver function tests", "setting": "[8]", "result": 0}, {"measurement": "HepSE_hepatitis", "setting": "[9]", "result": 1}, {"measurement": "HepSE_cholelithiasis", "setting": "[10]", "result": 0}, {"measurement": "HepSE_cirrhosis", "setting": "[11]", "result": 0}, {"measurement": "HepSE_hepatic failure", "setting": "[12]", "result": 0}, {"measurement": "HepSE_liver function tests abnormal", "setting": "[13]", "result": 0}, {"measurement": "HepSE_Combined Scores", "setting": "[14]", "result": 2}]}
{"smiles": "CC(N)Cc1ccccc1", "note": "(stereo not drawn) [AMPHETAMINE]", "values": [{"measurement": "HepSE_liver fatty", "setting": "[1]", "result": 0}, {"measurement": "HepSE_hepatic necrosis", "setting": "[2]", "result": 0}, {"measurement": "HepSE_bilirubinemia", "setting": "[3]", "result": 0}, {"measurement": "HepSE_liver disease", "setting": "[4]", "result": 0}, {"measurement": "HepSE_jaundice", "setting": "[5]", "result": 0}, {"measurement": "HepSE_hepatomegaly", "setting": "[6]", "result": 0}, {"measurement": "HepSE_cholecystitis", "setting": "[7]", "result": 0}, {"measurement": "HepSE_elevated liver function tests", "setting": "[8]", "result": 0}, {"measurement": "HepSE_hepatitis", "setting": "[9]", "result": 0}, {"measurement": "HepSE_cholelithiasis", "setting": "[10]", "result": 0}, {"measurement": "HepSE_cirrhosis", "setting": "[11]", "result": 0}, {"measurement": "HepSE_hepatic failure", "setting": "[12]", "result": 0}, {"measurement": "HepSE_liver function tests abnormal", "setting": "[13]", "result": 0}, {"measurement": "HepSE_Combined Scores", "setting": "[14]", "result": 0}]}
{"smiles": "C[C@@H]1[C@H](O)[C@@H](C)/C=C/C=C/C=C/C=C/C=C/C=C/C=C/[C@H](O[C@@H]2O[C@H](C)[C@@H](O)[C@H](N)[C@@H]2O)C[C@@H]2O[C@](O)(C[C@@H](O)C[C@@H](O)[C@H](O)CC[C@@H](O)C[C@@H](O)CC(=O)O[C@H]1C)C[C@H](O)[C@H]2C(=O)O", "note": "[AMPHOTERICIN B]", "values": [{"measurement": "HepSE_liver fatty", "setting": "[1]", "result": 0}, {"measurement": "HepSE_hepatic necrosis", "setting": "[2]", "result": 0}, {"measurement": "HepSE_bilirubinemia", "setting": "[3]", "result": 1}, {"measurement": "HepSE_liver disease", "setting": "[4]", "result": 1}, {"measurement": "HepSE_jaundice", "setting": "[5]", "result": 1}, {"measurement": "HepSE_hepatomegaly", "setting": "[6]", "result": 1}, {"measurement": "HepSE_cholecystitis", "setting": "[7]", "result": 0}, {"measurement": "HepSE_elevated liver function tests", "setting": "[8]", "result": 0}, {"measurement": "HepSE_hepatitis", "setting": "[9]", "result": 1}, {"measurement": "HepSE_cholelithiasis", "setting": "[10]", "result": 0}, {"measurement": "HepSE_cirrhosis", "setting": "[11]", "result": 0}, {"measurement": "HepSE_hepatic failure", "setting": "[12]", "result": 1}, {"measurement": "HepSE_liver function tests abnormal", "setting": "[13]", "result": 1}, {"measurement": "HepSE_Combined Scores", "setting": "[14]", "result": 7}]}
{"smiles": "CC1(C)S[C@@H]2[C@H](NC(=O)[C@H](N)c3ccccc3)C(=O)N2[C@H]1C(=O)O", "note": "[AMPICILLIN]", "values": [{"measurement": "HepSE_liver fatty", "setting": "[1]", "result": 0}, {"measurement": "HepSE_hepatic necrosis", "setting": "[2]", "result": 0}, {"measurement": "HepSE_bilirubinemia", "setting": "[3]", "result": 0}, {"measurement": "HepSE_liver disease", "setting": "[4]", "result": 0}, {"measurement": "HepSE_jaundice", "setting": "[5]", "result": 0}, {"measurement": "HepSE_hepatomegaly", "setting": "[6]", "result": 0}, {"measurement": "HepSE_cholecystitis", "setting": "[7]", "result": 0}, {"measurement": "HepSE_elevated liver function tests", "setting": "[8]", "result": 0}, {"measurement": "HepSE_hepatitis", "setting": "[9]", "result": 0}, {"measurement": "HepSE_cholelithiasis", "setting": "[10]", "result": 0}, {"measurement": "HepSE_cirrhosis", "setting": "[11]", "result": 0}, {"measurement": "HepSE_hepatic failure", "setting": "[12]", "result": 0}, {"measurement": "HepSE_liver function tests abnormal", "setting": "[13]", "result": 0}, {"measurement": "HepSE_Combined Scores", "setting": "[14]", "result": 0}]}
{"smiles": "COc1cc(NS(C)(=O)=O)ccc1Nc1c2ccccc2nc2ccccc12", "note": "[AMSACRINE]", "values": [{"measurement": "HepSE_liver fatty", "setting": "[1]", "result": 0}, {"measurement": "HepSE_hepatic necrosis", "setting": "[2]", "result": 0}, {"measurement": "HepSE_bilirubinemia", "setting": "[3]", "result": 0}, {"measurement": "HepSE_liver disease", "setting": "[4]", "result": 0}, {"measurement": "HepSE_jaundice", "setting": "[5]", "result": 1}, {"measurement": "HepSE_hepatomegaly", "setting": "[6]", "result": 0}, {"measurement": "HepSE_cholecystitis", "setting": "[7]", "result": 0}, {"measurement": "HepSE_elevated liver function tests", "setting": "[8]", "result": 0}, {"measurement": "HepSE_hepatitis", "setting": "[9]", "result": 1}, {"measurement": "HepSE_cholelithiasis", "setting": "[10]", "result": 0}, {"measurement": "HepSE_cirrhosis", "setting": "[11]", "result": 0}, {"measurement": "HepSE_hepatic failure", "setting": "[12]", "result": 1}, {"measurement": "HepSE_liver function tests abnormal", "setting": "[13]", "result": 0}, {"measurement": "HepSE_Combined Scores", "setting": "[14]", "result": 3}]}
{"smiles": "O=C1CN2Cc3c(ccc(Cl)c3Cl)N=C2N1", "note": "[ANAGRELIDE]", "values": [{"measurement": "HepSE_liver fatty", "setting": "[1]", "result": 0}, {"measurement": "HepSE_hepatic necrosis", "setting": "[2]", "result": 0}, {"measurement": "HepSE_bilirubinemia", "setting": "[3]", "result": 0}, {"measurement": "HepSE_liver disease", "setting": "[4]", "result": 0}, {"measurement": "HepSE_jaundice", "setting": "[5]", "result": 0}, {"measurement": "HepSE_hepatomegaly", "setting": "[6]", "result": 0}, {"measurement": "HepSE_cholecystitis", "setting": "[7]", "result": 0}, {"measurement": "HepSE_elevated liver function tests", "setting": "[8]", "result": 1}, {"measurement": "HepSE_hepatitis", "setting": "[9]", "result": 0}, {"measurement": "HepSE_cholelithiasis", "setting": "[10]", "result": 0}, {"measurement": "HepSE_cirrhosis", "setting": "[11]", "result": 0}, {"measurement": "HepSE_hepatic failure", "setting": "[12]", "result": 0}, {"measurement": "HepSE_liver function tests abnormal", "setting": "[13]", "result": 0}, {"measurement": "HepSE_Combined Scores", "setting": "[14]", "result": 1}]}
{"smiles": "CC(C)(C#N)c1cc(Cn2cncn2)cc(C(C)(C)C#N)c1", "note": "[ANASTROZOLE]", "values": [{"measurement": "HepSE_liver fatty", "setting": "[1]", "result": 0}, {"measurement": "HepSE_hepatic necrosis", "setting": "[2]", "result": 0}, {"measurement": "HepSE_bilirubinemia", "setting": "[3]", "result": 0}, {"measurement": "HepSE_liver disease", "setting": "[4]", "result": 0}, {"measurement": "HepSE_jaundice", "setting": "[5]", "result": 0}, {"measurement": "HepSE_hepatomegaly", "setting": "[6]", "result": 0}, {"measurement": "HepSE_cholecystitis", "setting": "[7]", "result": 0}, {"measurement": "HepSE_elevated liver function tests", "setting": "[8]", "result": 1}, {"measurement": "HepSE_hepatitis", "setting": "[9]", "result": 1}, {"measurement": "HepSE_cholelithiasis", "setting": "[10]", "result": 0}, {"measurement": "HepSE_cirrhosis", "setting": "[11]", "result": 0}, {"measurement": "HepSE_hepatic failure", "setting": "[12]", "result": 0}, {"measurement": "HepSE_liver function tests abnormal", "setting": "[13]", "result": 0}, {"measurement": "HepSE_Combined Scores", "setting": "[14]", "result": 2}]}
